Laboratory results: patent publication US20130090371A1, “METHODS AND COMPOSITIONS FOR INHIBITION OF BETA2-ADRENERGIC RECEPTOR DEGRADATION” (PRESIDENT AND FELLOWS OF HARVARD COLLEGE, priority 2010, published 2013)
d = 2'-deoxy (DNA)

Legend:
CaMKK2 = assay: qRT-PCR of CaMKK2 mRNA in primary HASM cells; type: cell-based, human; settings: 50 nM siRNA; three days after transfection
cell surface β2AR [1] = assay: Flowcytometry of cell surface β2AR in 293.β2AR* (recycle-deficient FLAG-β2AR, β2ARt) cells; type: cell-based, human
Description: (§1) Cell Culture, Transfection and Drug Treatments. […] Transfection of DNA into 293T cells was using FuGene 6 reagent (Roche) according to manufacturer's instruction. […] FDPS-specific siRNA (sense [NT], antisense [NT]) was from Sigma-Aldrich and the non-targeting Scrambled siRNA was from Thermo Scientific. […] Cells were washed with PBS and incubated with diluted TrypLE Express Enzyme (Invitrogen) (1:10 dilutio in PBS) for exactly 1 min at room temperature followed by adding regular medium immediately. […] Then cells were washed again and passed through cell strainers to remove cell clumps before being sorted on a FACS Aria multicolor high speed sorter (Becton Dickinson). During FACS analysis, the population of single cell was gated to measured FITC (green) signal. Background of auto-fluorescence was identified by plotting FITC with PE (red) or SSC (side scatter) signal. FITC-positive cells were collected in calcium and magnesium-free PBS with 20% FBS. Collected cells were cultured for repeating FACS sorting. […] The population of PI-negative single cell was gated to measured FITC signal.

cell surface β2AR [2] = assay: Flowcytometry of cell surface β2AR in 293.β2AR^WT cells; type: cell-based, human
Description: as §1

cellular cholesterol = assay: Cellular cholesterol measurement in 293.β2AR* cells; type: cell-based, human
Description: Error bars represented the standard deviations of replicates.
Cellular cholesterol measurement. 1×10^6 cells were cultured in each well of 6-well plates in DMEM containing 10% FBS for 3 d until fully confluent. Then drug treatments were performed in either DMEM containing 10% FBS or Opti-MEM without serum in duplicates. Cells were transferred to microcentrifuge tubes, washed twice with ice-cold PBS. Total lipids were extracted by resuspending and lysing cells in 300 μL of Chloroform: Isopropanol: Triton X-100 (7:11:0.1). The organic phase was collected after centrifugation at 12,000 rpm for 10 min and then evaporated at 50° C. for 3-4 h. Lipids were resuspend in 200 μL of Cholesterol Reaction buffer included in a commercial cholesterol measurement kit (Invitrogen) by votexing. Cholesterol was measured by the cholesterol oxidase method according to the manufacturer's directions. 2 or 4 measurements were taken for each replicate sample.

β2ARt = biological target: T1, β2ARt (Homo sapiens, UniProt P07550); assay: Immunoblot of agonist-induced β2AR degradation in 293β2AR* / β2ARt cells; type: cell-based; settings: after 3 hours of agonist induction (10 μM isoproterenol); vs empty vector
T1 construct: a distally truncated form (after residue 385) of β2AR (β2ARt); expressed in transfected cells; host or cells: HEK293 (293.β2AR*)
Description: β2AR ubiquitination and degradation assays. Cells expressing […] or β2ARt were subjected to 10 μM ISO (Sigma) stimulation, lysed in 0.5% NP-40 lysis buffer and immunoblotted with anti-FLAG-HRP (Sigma). For β2AR ubiquitination, β2ARt or wt-β2AR expressing cells were first incubated with 10 μM alprenolol antagonist (Sigma) for 15 min (to reduce constitutive background ubiquitination), stimulated with 10 μM ISO and lysed in buffer supplemented with 10 mM N-ethylmaleimide (NEM; Sigma) to inhibit deubiquitinase activity. Anti-FLAG EZview beads (Sigma) used for the IP were subjected to three 10 min washes with lysis buffer and resuspended in 50 μl 2βLDS sample buffer (Invitrogen) containing 10% β-mercaptoethanol (Sigma) and analyzed by immunoblotting.

FDPS = assay: Real-time RT-PCR of FDPS mRNA in 293β2AR* cells; type: cell-based, human; settings: normalized to β-Actin
Description: FIGS. 4A-4D show FDPS regulates the amount of Cell Surface β2AR in 293βAR* cells. […]. […] Cells were transduced with Lentivirus expressing FDPS-specific shRNA or empty vector, or transfected with FDPS-specific siRNA or non-targeting Scrambled (SCR) siRNA. The RNA levels were determined by real time RT-PCR and normalized to that of β-Actin. Error bars represented the standard deviations of replicates. Statistic analysis was using student's t-test. […]. MFI: Mean fluorescence intensity.
Real-Time RT-PCR. Total RNA was isolated by using TRIzol (Invitrogen) and further cleaned up by using RNeasy Mini kit (Qiagen) with DNase I digestion. cDNA was synthesized by using oligo-dT primers and SuperScript III (Invitrogen). Real-time PCR was performed on ABI Prism 7300 with SYBR Green (Qiagene). The FDPS was amplified with primers FDPS-1F (5′-TGACCGGCAAAATTGGCACTGACAT-3′) (SEQ ID NO: 20) and FDPS-1R (5′-CCTTCACCCGGGCCACTTTCTCA-3′) (SEQ ID NO: 21). […]. The β-Actin control was amplified with primers (Forward, 5′-AAG GCC AAC CGC GAG AAG-3′ (SEQ ID NO: 28) and Reverse, 5′-GGC GTA CAG GGA TAG CAC-3′ (SEQ ID NO: 29)).

[3] = test system: human airway smooth muscle cells; assay: Optical Magnetic Twisting Cytometry (elastic modulus) of HASM cells; settings: for decrease of stiffness compared to baseline: 1 mM isoproterenol, measured over 15 min
β2AR = assay: Immunoblot of β2AR protein in human airway smooth muscle (HASM) cells; settings: 20 μM isoproterenol for 2 d; vs non targeting shRNA
Description: Error bars represented the standard deviations; Student t-test * p<0.05, n=2. […] Indirect Immunofluorescence staining of β2AR and phase contract images are shown.
Three days after the inhibitor treatment cell lysates were collected and analyzed by immunoblotting. Three repeats were done with similar results.
Immunoblot analysis. 48 h post DNA transfection, cells were wash with PBS and lysed with NP-40 lysing buffer (50 mM Tris-HCl pH7.5, 150 mM NaCl, 0.5% Nonidet P-40) containing protease inhibitor cocktail (Roche). Protein samples were separated on NuPAGE 10% Bis-Tris gels (Invitrogen) and transferred to nitrocellulose membranes (Bio-Rad). Immunoblot signals were developed using SuperSignal West Pico Chemiluminescent Substrate (Pierce, Rockford, Ill., USA) and quantified by a Luminescence Imager or exposed to X-ray films.

[4] = biological target: T2, NEDD4 E3 ubiquitin ligase (UniProt P46934-4 1-900, limits assumed); assay: co-immunoprecipitation and immunoblot (FIG. 8B)
T2 construct: also called ubiquitin ligase NEDD4
T2 sequence (looked up): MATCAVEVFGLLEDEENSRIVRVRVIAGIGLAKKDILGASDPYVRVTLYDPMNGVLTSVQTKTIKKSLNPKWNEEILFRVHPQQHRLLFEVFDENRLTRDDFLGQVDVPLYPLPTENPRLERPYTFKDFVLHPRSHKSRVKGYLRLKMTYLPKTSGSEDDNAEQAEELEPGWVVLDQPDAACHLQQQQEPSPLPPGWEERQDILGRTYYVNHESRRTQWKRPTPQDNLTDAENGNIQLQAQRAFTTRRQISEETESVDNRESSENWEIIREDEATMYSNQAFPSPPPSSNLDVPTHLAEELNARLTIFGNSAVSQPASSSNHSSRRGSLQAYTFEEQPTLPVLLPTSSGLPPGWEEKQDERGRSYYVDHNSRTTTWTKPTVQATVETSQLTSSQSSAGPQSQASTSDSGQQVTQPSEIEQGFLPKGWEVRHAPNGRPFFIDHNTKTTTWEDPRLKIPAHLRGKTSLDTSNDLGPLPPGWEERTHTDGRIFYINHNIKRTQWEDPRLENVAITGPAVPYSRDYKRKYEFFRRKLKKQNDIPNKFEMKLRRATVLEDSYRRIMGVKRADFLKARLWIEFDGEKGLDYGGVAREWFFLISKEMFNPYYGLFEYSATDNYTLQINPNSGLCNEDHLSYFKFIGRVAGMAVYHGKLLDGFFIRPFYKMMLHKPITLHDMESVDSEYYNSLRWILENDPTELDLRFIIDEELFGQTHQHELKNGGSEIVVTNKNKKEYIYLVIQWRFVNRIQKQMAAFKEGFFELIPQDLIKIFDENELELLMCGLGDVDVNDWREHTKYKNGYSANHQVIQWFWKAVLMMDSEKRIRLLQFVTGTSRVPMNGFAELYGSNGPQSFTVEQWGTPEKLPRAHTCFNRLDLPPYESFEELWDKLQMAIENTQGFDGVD

CaMKK2 siRNA #1: 5′ GCUCCUAUGGUGUCGUCAAdTdT (SEQ ID NO: 32), MISSION siRNA from Sigma (GCUCCUAUGGUGUCGUCAATT; further chemistry not given here)
knockdown of CaMKK2 expression (CaMKK2): about 90%

CC[C@H](C)C(=O)O[C@H]1C[C@H](O)C=C2C=C[C@H](C)[C@H](CC[C@@H](O)C[C@@H](O)CC(=O)O)[C@H]21 [pravastatin]
effect on amount of cell surface β2AR (cell surface β2AR [1]; 100 μg/mL for 1 d): no significant effect
effect on amount of cell surface β2AR (cell surface β2AR [2]; 100 μg/mL for 1 d): no significant effect
cellular cholesterol lowering (cellular cholesterol; 1 μg/mL for 1 d, serum-free medium): 19.9%

ARRDC3-specific shRNA: shRNA sequence CCACAGACACCACTCGCTACCTCATT (SEQ ID NO: 24)
higher level of cell surface receptor after agonist stimulation (cell surface β2AR [1]; β2ARt cells, vs non-targeting shRNA): > 20%

Methyl-beta-cyclodextrin [MbCD]
cell surface β2AR post agonist induction (cell surface β2AR [1]; 1 or 2 mM for 1 h, then 10 μM isoproterenol 1 h): increased amount of cell surface β2AR post agonist induction
cellular cholesterol lowering (cellular cholesterol; 2 mM for 1 h, medium containing 10% FBS): 35.3%

FDPS-specific shRNA: lentiviral shRNA clone, hairpin sequence 5′-AGCGGAGAAAGTGACCTAGAGATTG-3′ (SEQ ID NO: 20) (AGCGGAGAAAGTGACCTAGAGATTG)
amount of β2AR by immunoblot (β2ARt): increased amount of β2AR
down regulation of FDPS mRNA level (knockdown efficiency) (FDPS): about 10%
baseline elastic modulus (t=0) ([3]; FDPS knockdown cells vs control cells): approximately two times lower
total amount of β2AR (β2AR): upregulation of β2AR

CC(C)NCC(O)c1ccc(O)c(O)c1 (stereo not shown) [isoproterenol]
decrease of stiffness compared to baseline ([3]; FDPS knockdown (sample) cells): ~15%
decrease of stiffness compared to baseline ([3]; control cells): ~40%

AA496068 EST shRNA: shRNA TCTGCATTTCCTGTAATTTTGCATGC (SEQ ID NO: 2) targeting EST AA496068 upstream of latrophilin 2
cell surface β2AR, mean fluorescence intensity (cell surface β2AR [1]; β2ARt-expressing 293 cells, vehicle or ISO 16 h, vs non-targeting shRNA): An increase in the mean fluorescence intensity values

NCCCC(O)(P(=O)([O-])O)P(=O)(O)O.[Na+] [alendronate, (4-amino-1-hydroxybutylidene)bisphosphonic acid monosodium salt]
cell surface β2AR levels after agonist induction (cell surface β2AR [1]; 50 or 500 μM for 1 d, then 10 μM isoproterenol 3 h): dose dependent increase of the cell surface β2AR levels
surface β2AR levels prior and post agonist induction (cell surface β2AR [1]; treatment for 2 days, data not shown): increase the surface β2AR levels
amount of cell surface β2AR (cell surface β2AR [2]; 50 μM alendronate alone for 1 d): increased the amount of cell surface β2AR
cell surface β2AR levels before and after agonist induction (cell surface β2AR [2]; 50 μM for 1 d, then 10 μM isoproterenol 1 h): increased the cell surface β2AR levels both before and after agonist induction
effect on cellular cholesterol (cellular cholesterol; 50 μM ALN or 100 μg/mL pravastatin for 1 d, serum containing medium): neither alendronate nor pravastatin could significantly lower the cellular cholesterol
effect on cellular cholesterol (cellular cholesterol; 50 μM for 1 d, serum-free medium): not sufficient to lower cellular cholesterol

FDPS-specific siRNA: sense 5′-cca ugu aca ugg cag gaa u(dT)(dT)-3′, antisense 5′-auu ccu gcc aug uac aug g(dT)(dT)-3′, from Sigma-Aldrich (sense CCAUGUACAUGGCAGGAAU; antisense AUUCCUGCCAUGUACAUGG; RNA, 3' dTdT, backbone not given here)
increase in cell surface β2AR (cell surface β2AR [1]; both prior and post agonist induction (10 μM isoproterenol 1 or 3 h), vs non-targeting control siRNA): about 2 fold
down regulation of FDPS mRNA level (knockdown efficiency) (FDPS): about 80%

CaMKK2 siRNA #2: 5′ UUGACGACACCAUAGGAGCdTdT (SEQ ID NO: 33), MISSION siRNA from Sigma (UUGACGACACCAUAGGAGCTT; further chemistry not given here)
knockdown of CaMKK2 expression (CaMKK2): about 90%

CC(C)CCC[C@@H](C)[C@H]1CC[C@H]2[C@@H]3CC=C4C[C@@H](O)CC[C@]4(C)[C@H]3CC[C@]12C [cholesterol]
effect on FDPS blockade of β2AR down-regulation (cell surface β2AR [2]; cholesterol supplementation (FIG. 6A)): reverses the effects of FDPS blockade

B1: ARRDC3ΔΔPPXY (double PPXY motif mutant of ARRDC3) (other, human, UniProt Q96B67 1-414, looked up)
chain: MVLGKVKSLTISFDCLNDSNVPVYSSGDTVSGRVNLEVTGEIRVKSLKIHARGHAKVRWTESRNAGSNTAYTQNYTEEVEYFNHKDILIGHERDDDNSEEGFHTIHSGRHEYAFSFELPQTPLATSFEGRHGSVRYWVKAELHRPWLLPVKLKKEFTVFEHIDINTPSLLSPQAGTKEKTLCCWFCTSGPISLSAKIERKGYTPGESIQIFAEIENCSSRMVVPKAAIYQTQAFYAKGKMKEVKQLVANLRGESLSSGKTETWNGKLLKIPPVSPSILDCSIIRVEYSLMVYVDIPGAMDLFLNLPLVIGTIPLHPFGSRTSSVSSQCSMNMNWLSLSLPERPEAAASAAEVVTEEQRRNNLAPVSACDDFERALQGPLFAYIQEFRFLPAALASEIDPNPDQSADDRPSCPSR
notes: also called double PPXY ARRDC3 mutant; double PPXY mutant
binding result [4]: no binding
